Measured values taken from patent US11759462B2, “Spirocyclic compounds as tryptophan hydroxylase inhibitors” (priority 2013, dated 2023).

The compounds below were run against T1, Recombinant human TPH1 (MBP tagged) (Homo sapiens, UniProt P17752) (assay: TPH1 in vitro inhibition assay (kinetic fluorescence)). Details: TPH1 Range (TPH1 inhibition IC50).
T1 construct: cloning full length human TPH1 cDNA in to a bacterial pMAL-c5E expression vector; made in house; host or cells: E. coli BL21 (DE3)
T1 sequence (P17752 1-444): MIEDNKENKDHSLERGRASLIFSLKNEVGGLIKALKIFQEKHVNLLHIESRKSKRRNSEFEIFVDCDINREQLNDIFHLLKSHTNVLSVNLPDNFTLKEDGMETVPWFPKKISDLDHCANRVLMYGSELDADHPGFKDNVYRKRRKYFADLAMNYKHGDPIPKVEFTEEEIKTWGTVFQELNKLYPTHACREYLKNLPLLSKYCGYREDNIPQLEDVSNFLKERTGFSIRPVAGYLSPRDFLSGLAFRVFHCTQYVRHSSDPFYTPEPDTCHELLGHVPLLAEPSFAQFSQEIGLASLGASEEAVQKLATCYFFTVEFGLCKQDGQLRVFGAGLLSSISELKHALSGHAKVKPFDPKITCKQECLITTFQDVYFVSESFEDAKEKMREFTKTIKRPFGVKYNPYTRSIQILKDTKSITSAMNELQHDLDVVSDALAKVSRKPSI
Assay type: biochemical
Summary of the method: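 Final mix: 15 nM MBP-TPH1, 30 μM Trp, 36 μM 6-methyltetrahydropterin, 25 μM ferrous ammonium sulfate, 50 mM MES pH 7.1, 1% DMSO, room temperature.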

For `Cn1ncc2cc(-c3ccc([C@@H](Oc4cc(N5CCC6(CC5)CN[C@H](C(=O)O)C6)nc(N)n4)C(F)(F)F)cc3)ccc21` [Example 55b, (S)-8-(2-amino-6-((R)-2,2,2-trifluoro-1-(4-(1-methyl-1H-indazol-5-yl)phenyl)ethoxy)pyrimidin-4-yl)-2,8-diazaspiro[4.5]decane-3-carboxylic acid], the IC50 was less than 50 nM.

Same assay, conditions: read-out: TPH1 Range (TPH1 inhibition IC50)

Compared with `COc1ccc(-c2ccc([C@@H](Oc3cc(N4CCC5(CC4)CN[C@H](C(=O)O)C5)nc(N)n3)C(F)(F)F)c(-n3ccc(C)n3)c2)cc1F` [Example 1ci, (S)-8-(2-amino-6-((R)-2,2,2-trifluoro-1-(3′-fluoro-4′-methoxy-3-(3-methyl-1H-pyrazol-1-yl)-[1,1′-biphenyl]-4-yl)ethoxy)pyrimidin-4-yl)-2,8-diazaspiro[4.5]decane-3-carboxylic acid], `Cc1ccn(-c2cc(-c3cccc(C(N)=O)c3)ccc2[C@@H](Oc2cc(N3CCC4(CC3)CN[C@H](C(=O)O)C4)nc(N)n2)C(F)(F)F)n1` [Example 1be, (S)-8-(2-amino-6-((R)-1-(3′-carbamoyl-3-(3-methyl-1H-pyrazol-1-yl)-[1,1′-biphenyl]-4-yl)-2,2,2-trifluoroethoxy)pyrimidin-4-yl)-2,8-diazaspiro[4.5]decane-3-carboxylic acid] is higher in IC50: less than 50 nM for the first, 50 to 300 nM for the second. The first is the more potent here.

First: Cc1ccn(-c2cc(-c3cncnc3)ccc2[C@@H](Oc2cc(N3CCC4(CC3)CN[C@H](C(=O)O)C4)nc(N)n2)C(F)(F)F)n1 [Example 1ai, (S)-8-(2-amino-6-((R)-2,2,2-trifluoro-1-(2-(3-methyl-1H-pyrazol-1-yl)-4-(pyrimidin-5-yl)phenyl)ethoxy)pyrimidin-4-yl)-2,8-diazaspiro[4.5]decane-3-carboxylic acid]
Second: Nc1nc(O[C@H](c2ccc(-c3cncnc3)cc2)C(F)(F)F)cc(N2CCC3(CC2)CN[C@H](C(=O)O)C3)n1 [Example 55ay, (S)-8-(2-amino-6-((R)-2,2,2-trifluoro-1-(4-(pyrimidin-5-yl)phenyl)ethoxy)pyrimidin-4-yl)-2,8-diazaspiro[4.5]decane-3-carboxylic acid]
The IC50 of the first is lower: less than 50 nM for the first, 300 to 3000 nM for the second.

`C/C=C/c1ccc(-n2ccc(C)n2)c([C@@H](Oc2cc(N3CCC4(CC3)CN[C@H](C(=O)O)C4)nc(N)n2)C(F)(F)F)c1` [Example 19b, (S)-8-(2-amino-6-((R)-2,2,2-trifluoro-1-(2-(3-methyl-1H-pyrazol-1-yl)-5-((E)-prop-1-en-1-yl)phenyl)ethoxy)pyrimidin-4-yl)-2,8-diazaspiro[4.5]decane-3-carboxylic acid] and `Cc1ccn(-c2ccc(-c3cccc(CCC(=O)O)c3)cc2[C@@H](Oc2cc(N3CCC4(CC3)CN[C@H](C(=O)O)C4)nc(N)n2)C(F)(F)F)n1` [Example 19j, (S)-8-(2-amino-6-((R)-1-(3′-(2-carboxyethyl)-4-(3-methyl-1H-pyrazol-1-yl)-[1,1′-biphenyl]-3-yl)-2,2,2-trifluoroethoxy)pyrimidin-4-yl)-2,8-diazaspiro[4.5] decane-3-carboxylic acid] cannot be ordered by IC50: less than 50 nM for the first, less than 50 nM for the second.

`CCc1cccc(-c2cc(Cl)ccc2[C@@H](Oc2cc(N3CCC4(CC3)CN[C@H](C(=O)O)C4)nc(N)n2)C(F)(F)F)c1` [Example 34cd, (S)-8-(2-amino-6-((R)-1-(5-chloro-3′-ethyl-[1,1′-biphenyl]-2-yl)-2,2,2-trifluoroethoxy)pyrimidin-4-yl)-2,8-diazaspiro[4.5]decane-3-carboxylic acid] and `Nc1nc(O[C@H](c2ccc(Cl)cc2-c2cccc(CO)c2)C(F)(F)F)cc(N2CCC3(CC2)CN[C@H](C(=O)O)C3)n1` [Example 34m, (S)-8-(2-amino-6-((R)-1-(5-chloro-3′-(hydroxymethyl)-[1,1′-biphenyl]-2-yl)-2,2,2-trifluoroethoxy)pyrimidin-4-yl)-2,8-diazaspiro[4.5]decane-3-carboxylic acid] fall in the same range of IC50: 50 to 300 nM for the first, 50 to 300 nM for the second.

Compared with `Nc1nc(O[C@H](c2ccc(-c3ccc4sncc4c3)cc2)C(F)(F)F)cc(N2CCC3(CC2)CN[C@H](C(=O)O)C3)n1` [Example 55j, (S)-8-(2-amino-6-((R)-1-(4-(benzo[d]isothiazol-5-yl)phenyl)-2,2,2-trifluoroethoxy)pyrimidin-4-yl)-2,8-diazaspiro[4.5]decane-3-carboxylic acid], `Cc1cccc(-c2ccc([C@@H](Oc3cc(N4CCC5(CC4)CN[C@H](C(=O)O)C5)nc(N)n3)C(F)(F)F)cc2)c1` [Example 55cx, (S)-8-(2-amino-6-((R)-2,2,2-trifluoro-1-(3′-methyl-[1,1′-biphenyl]-4-yl)ethoxy)pyrimidin-4-yl)-2,8-diazaspiro[4.5]decane-3-carboxylic acid] is higher in IC50: 50 to 300 nM for the first, 300 to 3000 nM for the second. The first is the more potent here.

`Cc1ncc(-c2cc(Cl)ccc2[C@@H](Oc2cc(N3CCC4(CC3)CN[C@H](C(=O)O)C4)nc(N)n2)C(F)(F)F)s1` [Example 34ci, (S)-8-(2-amino-6-((R)-1-(4-chloro-2-(2-methylthiazol-5-yl)phenyl)-2,2,2-trifluoroethoxy)pyrimidin-4-yl)-2,8-diazaspiro[4.5]decane-3-carboxylic acid] and `CCOC(=O)c1cccc(-c2cc(Cl)ccc2[C@@H](Oc2cc(N3CCC4(CC3)CN[C@H](C(=O)O)C4)nc(N)n2)C(F)(F)F)c1` [Example 35, (S)-8-(2-amino-6-((R)-1-(5-chloro-3′-(ethoxycarbonyl)-[1,1′-biphenyl]-2-yl)-2,2,2-trifluoroethoxy)pyrimidin-4-yl)-2,8-diazaspiro[4.5]decane-3-carboxylic acid] fall in the same range of IC50: 50 to 300 nM for the first, 50 to 300 nM for the second.

Compared with `Nc1nc(O[C@H](c2ccc(Cl)cc2-c2cccc(C(=O)NCCN3CCCC3)c2)C(F)(F)F)cc(N2CCC3(CC2)CN[C@H](C(=O)O)C3)n1` [Example 34cf, (S)-8-(2-amino-6-((R)-1-(5-chloro-3′-((2-(pyrrolidin-1-yl)ethyl)carbamoyl)-[1,1′-biphenyl]-2-yl)-2,2,2-trifluoroethoxy)pyrimidin-4-yl)-2,8-diazaspiro[4.5]decane-3-carboxylic acid], `Nc1nc(O[C@H](c2ccc(Cl)cc2-c2cccc(C(=O)N3CCN(C4CC4)CC3)c2)C(F)(F)F)cc(N2CCC3(CC2)CN[C@H](C(=O)O)C3)n1` [Example 34cr, (S)-8-(2-amino-6-((R)-1-(5-chloro-3′-(4-cyclopropylpiperazine-1-carbonyl)-[1,1′-biphenyl]-2-yl)-2,2,2-trifluoroethoxy)pyrimidin-4-yl)-2,8-diazaspiro[4.5]decane-3-carboxylic acid] is lower in IC50: 300 to 3000 nM for the first, 50 to 300 nM for the second.

First: Nc1nc(O[C@H](c2ccccc2-c2ccccc2)C(F)(F)F)cc(N2CCC3(CC2)CN[C@H](C(=O)O)C3)n1 [Example 36g, (S)-8-(6-((R)-1-([1,1′-biphenyl]-2-yl)-2,2,2-trifluoroethoxy)-2-aminopyrimidin-4-yl)-2,8-diazaspiro[4.5]decane-3-carboxylic acid]
Second: Nc1nc(O[C@H](c2ccc(Cl)cc2-c2cccc(OC(F)(F)F)c2)C(F)(F)F)cc(N2CCC3(CC2)CN[C@H](C(=O)O)C3)n1 [Example 34bg, (S)-8-(2-amino-6-((R)-1-(5-chloro-3′-(trifluoromethoxy)-[1,1′-biphenyl]-2-yl)-2,2,2-trifluoroethoxy)pyrimidin-4-yl)-2,8-diazaspiro[4.5]decane-3-carboxylic acid]
The IC50 of the first is lower: less than 50 nM for the first, 50 to 300 nM for the second.

First: Nc1nc(O[C@H](c2ccc(-c3cc(F)cc(F)c3)cc2)C(F)(F)F)cc(N2CCC3(CC2)CN[C@H](C(=O)O)C3)n1 [Example 55ap, (S)-8-(2-amino-6-((R)-1-(3′,5′-difluoro-[1,1′-biphenyl]-4-yl)-2,2,2-trifluoroethoxy)pyrimidin-4-yl)-2,8-diazaspiro[4.5]decane-3-carboxylic acid]
Second: Nc1nc(O[C@H](c2ccc(-c3ccc4[nH]cnc4c3)cc2)C(F)(F)F)cc(N2CCC3(CC2)CN[C@H](C(=O)O)C3)n1 [Example 55d, (S)-8-(6-((R)-1-(4-(1H-benzo[d]imidazol-5-yl)phenyl)-2,2,2-trifluoroethoxy)-2-aminopyrimidin-4-yl)-2,8-diazaspiro[4.5]decane-3-carboxylic acid]
The IC50 of the first is higher: 50 to 300 nM for the first, less than 50 nM for the second.

`COc1ccc(-c2ccc([C@@H](Oc3cc(N4CCC5(CC4)CN[C@H](C(=O)O)C5)nc(N)n3)C(F)(F)F)cc2)c(OC)c1` [Example 55cc, (S)-8-(2-amino-6-((R)-1-(2′,4′-dimethoxy-[1,1′-biphenyl]-4-yl)-2,2,2-trifluoroethoxy)pyrimidin-4-yl)-2,8-diazaspiro[4.5]decane-3-carboxylic acid] and `Cc1nn(C)c2ccc(-c3ccc([C@@H](Oc4cc(N5CCC6(CC5)CN[C@H](C(=O)O)C6)nc(N)n4)C(F)(F)F)cc3)cc12` [Example 55x, (S)-8-(2-amino-6-((R)-1-(4-(1,3-dimethyl-1H-indazol-5-yl)phenyl)-2,2,2-trifluoroethoxy)pyrimidin-4-yl)-2,8-diazaspiro[4.5]decane-3-carboxylic acid] fall in the same range of IC50: 50 to 300 nM for the first, 50 to 300 nM for the second.

For `CC(Oc1cc(N2CCC3(CC2)CN[C@H](C(=O)O)C3)nc(N)n1)C1C2CC3CC(C2)CC1C3` (stereo partly drawn) [Example 37, (3S)-8-(6-(1-((1r,3r,5S,7S)-adamantan-2-yl)ethoxy)-2-aminopyrimidin-4-yl)-2,8-diazaspiro[4.5]decane-3-carboxylic acid], the IC50 was 3000 to 10000 nM.
